Results published in ChEMBL document CHEMBL1155939, “Baicalin, a prodrug able to reach the CNS, is a prolyl oligopeptidase inhibitor” (Bioorg Med Chem, 2008).
pIC50: −log10 of the molar value.

biological target: T1, Prolyl endopeptidase (Homo sapiens, UniProt P48147); experiment: Inhibition of human brain prolyl oligopeptidase expressed in Escherichia coli
T1 sequence (P48147 whole entry): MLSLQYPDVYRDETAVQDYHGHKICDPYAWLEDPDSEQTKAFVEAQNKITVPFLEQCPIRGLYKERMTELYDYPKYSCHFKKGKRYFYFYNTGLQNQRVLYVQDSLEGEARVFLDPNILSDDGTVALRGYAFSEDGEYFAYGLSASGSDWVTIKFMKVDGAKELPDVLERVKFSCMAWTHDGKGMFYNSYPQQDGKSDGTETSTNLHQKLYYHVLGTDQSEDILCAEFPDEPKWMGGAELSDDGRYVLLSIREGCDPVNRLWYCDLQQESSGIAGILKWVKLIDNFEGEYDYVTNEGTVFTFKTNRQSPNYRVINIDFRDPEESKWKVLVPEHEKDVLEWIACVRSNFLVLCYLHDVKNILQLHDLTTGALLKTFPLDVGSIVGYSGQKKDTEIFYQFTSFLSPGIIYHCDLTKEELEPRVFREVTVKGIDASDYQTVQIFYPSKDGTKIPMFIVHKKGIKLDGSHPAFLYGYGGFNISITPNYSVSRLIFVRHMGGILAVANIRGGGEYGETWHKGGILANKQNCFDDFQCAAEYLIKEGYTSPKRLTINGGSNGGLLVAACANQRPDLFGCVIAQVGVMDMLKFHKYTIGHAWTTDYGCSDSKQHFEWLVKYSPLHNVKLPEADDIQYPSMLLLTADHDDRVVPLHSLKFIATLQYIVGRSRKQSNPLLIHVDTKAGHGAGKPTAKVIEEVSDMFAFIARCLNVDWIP

`O=c1c(O)c(-c2ccccc2)oc2cc(O)ccc12` [3,7-DIHYDROXYFLAVONE] and `O=c1c(O)c(-c2ccc(O)cc2)oc2cc(O)cc(O)c12` [KAEMPFEROL] cannot be ordered by pIC50: < 3.70 for the first, < 3.70 for the second.

First: O=c1c(O)c(-c2ccc(O)c(O)c2)oc2cc(O)cc(O)c12 [QUERCETIN]
Second: C[C@@H]1O[C@@H](OC[C@H]2O[C@@H](Oc3c(-c4ccc(O)c(O)c4)oc4cc(O)cc(O)c4c3=O)[C@H](O)[C@@H](O)[C@@H]2O)[C@H](O)[C@H](O)[C@H]1O [RUTIN]
The pIC50 of the first is higher: 4.89 for the first, < 3.70 for the second. The first is the more potent here.
